Measurements taken from ChEMBL document CHEMBL1131167, “Structure-activity relationships of a series of analogues of the octadecaneuropeptide ODN on calcium mobilization in rat astrocytes” (1998).
Peptide text beside a SMILES is read from it.

What was measured:
Format in all cases: functional
Rattus norvegicus [1] = species on record: Rattus norvegicus; assay: Effect of compound on basal [Ca2+] and ODN induced [Ca2+] increase in cultured rat astrocytes measured at 10*e-6 conc (M)
Rattus norvegicus [2] = species on record: Rattus norvegicus; assay: Effect of compound on basal [Ca2+] and ODN induced [Ca2+] increase in cultured rat astrocytes measured at 10*e-8+10e-6 conc (M) in the presence of [D-Thr9]-ODN
Rattus norvegicus [3] = species on record: Rattus norvegicus; assay: Effect of compound on basal [Ca2+] and ODN induced [Ca2+] increase in cultured rat astrocytes measured at 10*e-8+10e-6 conc (M) in the presence of [Ala15]ODN. p<0.001
Rattus norvegicus [4] = species on record: Rattus norvegicus; assay: Effect of compound on basal [Ca2+] and ODN induced [Ca2+] increase in cultured rat astrocytes measured at 10*e-8+10e-6 conc (M) in the presence of [D-Leu15]-ODN
Rattus norvegicus [5] = species on record: Rattus norvegicus; assay: Effect of compound on basal [Ca2+] and ODN induced [Ca2+] increase in cultured rat astrocytes measured at 10*e-8+10e-6 conc (M) in the presence of [D-Leu5-]OP
Rattus norvegicus [6] = species on record: Rattus norvegicus; assay: Effect of compound on basal [Ca2+] and ODN induced [Ca2+] increase in cultured rat astrocytes measured at 10*e-8+10e-6 conc (M) in the presence of [Ala9]ODN. p<0.001
Rattus norvegicus [7] = species on record: Rattus norvegicus; assay: Effect of compound on basal [Ca2+] and ODN induced [Ca2+] increase in cultured rat astrocytes measured at 10*e-8 conc (M).

Row | SMILES | [Ca2+] variation (Rattus norvegicus [1]) [nM] | [Ca2+] variation (Rattus norvegicus [2]) [nM] | [Ca2+] variation (Rattus norvegicus [3]) [nM] | [Ca2+] variation (Rattus norvegicus [4]) [nM] | [Ca2+] variation (Rattus norvegicus [5]) [nM] | [Ca2+] variation (Rattus norvegicus [6]) [nM] | [Ca2+] variation (Rattus norvegicus [7]) [nM]
1 | CC(C)C[C@H](NC(=O)CNC(=O)[C@@H]1CCCN1C(=O)[C@@H](N)CCCNC(=N)N)C(=O)N[C@@H](C)C(=O)N[C@@H](CC(=O)O)C(=O)N[C@@H](CC(C)C)C(=O)N[C@@H](CCCCN)C(=O)O (H-RPGLADLK-OH) | 37 | – | – | – | – | – | –
2 | CC(C)C[C@H](NC(=O)CNC(=O)[C@@H]1CCCN1C(=O)[C@H](CCCN=C(N)N)NC(=O)[C@H](CC(=O)O)NC(=O)[C@@H](NC(=O)[C@H](CC(N)=O)NC(=O)[C@@H](NC(=O)[C@H](CC(=O)O)NC(=O)CNC(=O)[C@@H](NC(=O)[C@@H](NC(=O)[C@H](C)NC(=O)[C@@H](N)CCC(N)=O)[C@@H](C)O)C(C)C)C(C)C)[C@@H](C)O)C(=O)N[C@@H](CC(C)C)C(=O)N[C@@H](CC(=O)O)C(=O)N[C@@H](CC(C)C)C(=O)N[C@@H](CCCCN)C(=O)O [QATVGDVNTDRPGLLDLK] (H-QATVGDVNTDRPGLLDLK-OH) | – | 31 | 36 | 25 | 39 | 39 | 62
